Patent publication US4224333A, “Antihypertensive 2H-indol-2-ones” (Roussel Uclaf, priority 1978, dated 1980)
Structures can show the parent of a compound that is named as a salt.

What was measured:
[1] = system: male rats of the Sprague Dawley S.P.F. strain; experiment: Hypotensive activity (carotid arterial pressure) in anesthetized rats, intravenous; assay type: in vivo, rat; conditions: 1 mg/kg i.v., hydrochloride form
Procedure: The hypotensive activity was determined on groups of male rats of the Sprague Dawley S.P.F. strain weighing about 300 g which had been anesthesized with an intraveinous administration of 50 mg/kg of nembutal. The test products in their hydrochloride form were administered intraveinously in the jugular vein and the carotidiene arterial pressure was measured before and after the said administration. The variations between the initial arterial pressure and the pressure after the administration was determined as well as the time of duration of the activity and the results are reported in Table I.

[2] = system: spontaneous hypertendus male rats of the Okamto strain; experiment: Antihypertensive activity in spontaneously hypertensive rats, oral (tail arterial pressure); assay type: in vivo, rat; conditions: 50 mg/kg oral, hydrochloride form; for % Variation of arterial pressure 1 hour after administration: 1 h on first day; for % Variation of arterial pressure 4 hours after administration: 4 h on first day; for % Variation of arterial pressure, 10th day: 24 h after last administration
Procedure: The arterial pressure was measured before and after the said administration on the rat's tail with a pneumatic collar connected to an electronic translator of pressure and the results of Table II compare the initial arterial pressure with the arterial pressure 1,4 hours of the first day and 24 hours after the last administration.

[3] = Acute toxicity (LD50) in mice, intraperitoneal; conditions: mouse, in vivo, ip, suspension in carboxymethyl cellulose, observed one week
Procedure: The acute toxicity of the products was determined on groups of 10 mice weighing between 18 and 22 g and the products were intraperitoneally administered in a suspension in carboxymethyl cellulose.

[4] = test was for 3 days administration

SMILES: O=C1Nc2ccccc2C1C1CCN(C[C@H](O)[C@H]2COc3ccccc3O2)CC1 (relative stereo) [Example 2, (dl) erythro 1,3-dihydro-3-{1-[2-(2,3-dihydro-1,4-benzodioxin-2-yl)-2-hydroxyethyl]-piperidin-4-yl}-2H-indol-2-one hydrochloride]
- % change in arterial pressure ([1]; at 5 min): -30%
- % change in arterial pressure ([1]; at 60 min): -20%
- % Variation of arterial pressure 1 hour after administration ([2]; 9 days administration): -23%
- % Variation of arterial pressure 4 hours after administration ([2]; 9 days administration): -22%
- % Variation of arterial pressure, 10th day ([2]; 9 days administration): -9%
- LD50 at 168 h [3]: ~125 mg/kg

SMILES: O=C1Nc2ccccc2C1C1CCN(C[C@H](O)[C@@H]2COc3ccccc3O2)CC1 (relative stereo) [Example 3, (dl) threo 1,3-dihydro-3-{1-[2-(2,3-dihydro-1,4-benzodioxin-2-yl)-2-hydroxyethyl]-piperidin-4-yl}-2H-indol-2-one hydrochloride]
- % change in arterial pressure ([1]; at 1 min): -20%
- % change in arterial pressure ([1]; at 15 min): -10%
- LD50 at 168 h [3]: ~125 mg/kg

SMILES: CN1C(=O)C(C2CCN(C[C@H](O)[C@H]3COc4ccccc4O3)CC2)c2ccccc21 (relative stereo) [Example 4, (dl) erythro 1,3-dihydro-3-{1-[2-(2,3-dihydro-1,4-benzodioxin-2-yl)-2-hydroxyethyl]-piperidin-4-yl}-1-methyl-2H-indol-2-one hydrochloride]
- % change in arterial pressure ([1]; at 1 min): -28%
- % change in arterial pressure ([1]; at 5 min): -23%
- % change in arterial pressure ([1]; at 10 min): -26%
- % change in arterial pressure ([1]; at 30 min): -24%
- % Variation of arterial pressure 1 hour after administration [2, 4]: -23%
- % Variation of arterial pressure 4 hours after administration [2, 4]: -31%
- % Variation of arterial pressure, 10th day [2, 4]: -16%
- LD50 at 168 h [3]: ~200 mg/kg

SMILES: Cl.O=C1Nc2ccccc2C1C1CCN(CC(O)C2COc3ccccc3O2)CC1 (centres unmarked) [Example 1, 3-{1-[2-(2,3-dihydro-1,4-benzodioxin-2-yl)-2-hydroxyethyl]-piperidin-4-yl}-1,3-dihydro-2H-indol-2-one hydrochloride]
- % change in arterial pressure ([1]; at 1 min): -20%
- % change in arterial pressure ([1]; at 45 min): -10%
- % Variation of arterial pressure 1 hour after administration ([2]; 9 days administration): -29%
- % Variation of arterial pressure 4 hours after administration ([2]; 9 days administration): -27%
- % Variation of arterial pressure, 10th day ([2]; 9 days administration): -8%
- LD50 at 168 h [3]: ~150 mg/kg
